The text below walks through data of patent US20230219965A1 (KSQ Therapeutics, Inc., priority 2020, published 2023).

Where only a bound is given, the exact number is not on record here.

Chain of USP1/UAF1 enzyme (O94782 whole entry): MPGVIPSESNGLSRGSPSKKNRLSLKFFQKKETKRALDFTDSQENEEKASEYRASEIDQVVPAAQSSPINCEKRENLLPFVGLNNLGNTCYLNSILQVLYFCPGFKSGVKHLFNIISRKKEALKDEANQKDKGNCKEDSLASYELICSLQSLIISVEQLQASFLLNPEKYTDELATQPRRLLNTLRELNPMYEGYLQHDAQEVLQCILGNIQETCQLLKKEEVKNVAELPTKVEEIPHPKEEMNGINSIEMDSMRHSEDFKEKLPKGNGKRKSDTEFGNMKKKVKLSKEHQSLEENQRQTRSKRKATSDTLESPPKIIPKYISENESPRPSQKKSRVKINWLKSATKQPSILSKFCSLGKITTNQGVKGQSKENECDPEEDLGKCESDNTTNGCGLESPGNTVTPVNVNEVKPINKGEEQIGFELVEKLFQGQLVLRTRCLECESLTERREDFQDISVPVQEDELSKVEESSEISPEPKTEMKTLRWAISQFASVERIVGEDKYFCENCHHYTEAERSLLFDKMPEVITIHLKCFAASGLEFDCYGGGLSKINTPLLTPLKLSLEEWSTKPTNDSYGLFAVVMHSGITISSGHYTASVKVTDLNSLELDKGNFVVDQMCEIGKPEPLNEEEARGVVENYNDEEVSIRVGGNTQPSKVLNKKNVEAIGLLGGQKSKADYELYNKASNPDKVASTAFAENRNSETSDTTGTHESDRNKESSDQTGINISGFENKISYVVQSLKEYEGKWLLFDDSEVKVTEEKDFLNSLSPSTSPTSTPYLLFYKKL
Chain of USP1/UAF1 enzyme (Q8TAF3 whole entry partner): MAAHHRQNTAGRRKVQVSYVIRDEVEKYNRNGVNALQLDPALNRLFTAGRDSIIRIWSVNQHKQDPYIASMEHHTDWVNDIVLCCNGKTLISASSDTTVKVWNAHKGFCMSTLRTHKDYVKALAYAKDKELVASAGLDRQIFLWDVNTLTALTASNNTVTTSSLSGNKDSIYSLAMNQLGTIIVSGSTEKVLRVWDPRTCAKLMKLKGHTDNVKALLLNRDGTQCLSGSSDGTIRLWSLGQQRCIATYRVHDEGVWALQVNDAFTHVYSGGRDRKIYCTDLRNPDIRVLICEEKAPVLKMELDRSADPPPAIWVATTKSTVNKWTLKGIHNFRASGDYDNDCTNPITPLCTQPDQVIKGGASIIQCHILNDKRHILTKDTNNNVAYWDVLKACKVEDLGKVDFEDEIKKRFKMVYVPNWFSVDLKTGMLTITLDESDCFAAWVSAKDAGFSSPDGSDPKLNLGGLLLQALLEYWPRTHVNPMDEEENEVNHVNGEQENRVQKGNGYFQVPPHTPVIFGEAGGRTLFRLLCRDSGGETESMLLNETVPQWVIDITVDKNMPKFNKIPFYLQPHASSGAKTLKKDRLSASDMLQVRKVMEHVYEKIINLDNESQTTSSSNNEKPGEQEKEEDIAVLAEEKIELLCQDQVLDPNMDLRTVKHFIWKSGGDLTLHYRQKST

The target of this assay is USP1/UAF1 enzyme (Homo sapiens, UniProt O94782). As to the kind of experiment: USP1/UAF1 deubiquitination assay (ubiquitin-rhodamine 110 substrate). In kind it is biochemical. The note with it: read-out: USP1 IC50 (Ub-Rho). The method, then:
Certain Compounds of the Disclosure were assessed for USP1/UAF1 activity in a Ubiquitin Rhodamine assay modified from those described previously.
Deubiquitinase activity was measured using ubiquitin-rhodamine 110 as a substrate. Cleavage of the amide bond between rhodamine and the c-terminal glycine of ubiquitin yields an increase in fluorescence signal. The assay was conducted in 20 μl total volume of assay buffer (50 mM Tris-HCl, pH 7.8, 0.5 mM EDTA, 0.01% Bovine Serum Albumin, 1 mM DTT, 0.01% Tween-20), and 0.05 nM USP1/UAF1 enzyme. Reaction was initiated by addition of 150 nM Ubiquitin-rhodamine (Boston Biochem) substrate.
Compounds of the Disclosure, dissolved in DMSO were tested in dose response format, beginning at […].
The example compounds listed below were added to enzyme/assay buffer mix and incubated 10 min. Substrate mix was added, and reaction mix was read in kinetic mode for 30 min at Ex480/Em540 and IC50 response curves were plotted.
Data for all assay formats was calculated as percent inhibition compared with control wells. Percent inhibition was calculated using the following equation: % inhibition=100×[1−(X−min)/(max−min)], where X is the raw data readout, min is the average of the no enzyme control wells (n=32), max is the average of the DMSO control well (n=32). IC50 values were calculated using the standard four parameter curve fitting algorithm in either Prism GraphPad (La Jolla, Calif.) software, or Collaborative Drug Discovery (Burlingame, Calif.) CDD Vault. See Chem. Biol. 20(1): 55-62 (Jan. 24, 2013); Bioorg. Med. Chem. Lett. 23(20): 5660-5666 (Oct. 15, 2013).
With `CCn1cc(C(F)(F)F)nc1-c1ccc(CN2C(=O)CCn3nc(-c4c(Cl)cnn4CCO)cc32)cc1F` [Example 163], the half-inhibitory concentration (IC50) (in general, the point on the concentration scale where inhibition reaches its midpoint) lay within 100 to 500 nM.

`CCn1cc(C(F)(F)F)nc1-c1ccc(CN2C(=O)CCn3nc(-c4c(OC)ncnc4C4CC4)nc32)cc1OC` [Example 185]: the IC50 is 100 to 500 nM.

Consider `CCn1cc(C(F)(F)F)nc1-c1ccc(CN2C(=O)CCn3nc(-c4c(OC)ncnc4C4CC4)nc32)cc1OC(F)F` [Example 192], for which the IC50 lay in the range of 100 to 500 nM.

As for `CCn1cc(C#N)nc1-c1ccc([C@H](C)N2C(=O)CCn3nc(-c4c(OC)ncnc4C4CC4)nc32)cc1` [Example 198], the IC50 was more than 500 nM.

As for `CCn1cc(C#N)nc1-c1ccc([C@@H](C)N2C(=O)CCn3nc(-c4c(OC)ncnc4C4CC4)nc32)cc1` [Example 199], the IC50 lay in the range of 100 to 500 nM.

Take `COc1ncnc(C2CC2)c1-c1nc2n(n1)CCC(=O)N2C(C)c1ccc(-n2nc(C(F)(F)F)cc2OCC(F)F)cc1` (stereo not shown) [Example 214]: the concentration for half-maximal inhibition (IC50) was less than 100 nM.

In the case of `CC(c1ccc(-n2nc(C(F)(F)F)cc2OCC(F)F)cc1)N1C(=O)CCn2nc(-c3c(Cl)cnn3C(C)C)nc21` (stereo not shown) [Example 215], the half-maximal inhibitory concentration (IC50) is 100 to 500 nM.

As to `COc1ncnc(C2CC2)c1-c1nc2n(n1)CCC(=O)N2C(C)c1ccc(-c2nc(C(F)(F)F)cn2C(C)C)c(F)c1OC` (stereo not shown) [Example 218], the half-inhibitory concentration (IC50) is 100 to 500 nM.

Consider `COc1ncnc(C2CC2)c1-c1nc2n(n1)CCC(=O)N2C(C)c1ccc(-c2ncccc2N(C)C)cc1` (stereo not shown) [Example 219], for which the IC50 was less than 100 nM.

With `COc1ncnc(C2CC2)c1-c1nc2n(n1)CCC(=O)N2C(C)c1ccc(-c2ncccc2OC(C)C)cc1` (stereo not shown) [Example 220], the IC50 was less than 100 nM.

Turning to `CNCc1cc(C(F)(F)F)nn1-c1ccc(CN2C(=O)CCn3nc(-c4c(Cl)cnn4C(C)C)cc32)cc1` [Example 224, 2-(4-chloro-1-isopropyl-1H-pyrazol-5-yl)-4-(4-(5-((methylamino)methyl)-3-(trifluoromethyl)-1H-pyrazol-1-yl)benzyl)-6,7-dihydropyrazolo[1,5-α]pyrimidin-5(4H)-one], the IC50 was 100 to 500 nM.

In the case of `CNCc1cc(C(F)(F)F)nn1-c1ccc(CN2C(=O)CCn3nc(-c4c(OC)ncnc4C4CC4)cc32)cc1` [Example 225, 2-(4-cyclopropyl-6-methoxypyrimidin-5-yl)-4-(4-(5-((methylamino)methyl)-3-(trifluoromethyl)-1H-pyrazol-1-yl)benzyl)-6,7-dihydropyrazolo[1,5-a]pyrimidin-5(4H)-one], the IC50 was 100 to 500 nM.

Take `CC(C)n1ncc(Cl)c1-c1cc2n(n1)CCC(=O)N2Cc1ccc(OCc2ccccn2)cc1` [Example 226, 2-(4-chloro-1-isopropyl-1H-pyrazol-5-yl)-4-(4-(pyridin-2-ylmethoxy)benzyl)-6,7-dihydropyrazolo[1,5-α]pyrimidin-5(4H)-one]: the concentration for half-maximal inhibition (IC50) was 100 to 500 nM.

In the case of `CCn1cc(C(F)(F)F)nc1-c1ccc(CN2C(=O)CCn3nc(-c4c(Cl)cnn4C(C)CO)cc32)cc1` (stereo not drawn) [Example 227, 2-(4-chloro-1-(1-hydroxypropan-2-yl)-1H-pyrazol-5-yl)-4-(4-(1-ethyl-4-(trifluoromethyl)-1H-imidazol-2-yl)benzyl)-6,7-dihydropyrazolo[1,5-α]pyrimidin-5(4H)-one], the IC50 was in the range of 100 to 500 nM.

For `CC(C)n1cc(C(F)(F)F)nc1-c1ccc(CN2C(=O)CCn3nc(-c4c(Cl)cnn4C(C)C)nc32)cc1OCCO` [Example 228, 2-(4-chloro-1-isopropyl-1H-pyrazol-5-yl)-4-(3-(2-hydroxyethoxy)-4-(1-isopropyl-4-(trifluoromethyl)-1H-imidazol-2-yl)benzyl)-6,7-dihydro-[1,2,4]triazolo[1,5-α]pyrimidin-5(4H)-one], the IC50 was in the range of 100 to 500 nM.

Take `CCn1cc(C(F)(F)F)nc1-c1ccc(CN2C(=O)CCn3nc(-c4c(Cl)cnn4C(C)C)c(N)c32)cc1` [Example 229, 3-amino-2-(4-chloro-1-isopropyl-1H-pyrazol-5-yl)-4-(4-(1-ethyl-4-(trifluoromethyl)-1H-imidazol-2-yl)benzyl)-6,7-dihydropyrazolo[1,5-α]pyrimidin-5(4H)-one]: the IC50 fell in the range of 100 to 500 nM.

On to `CC(C)n1ncc(Cl)c1-c1cc2n(n1)CCC(=O)N2Cc1ccc(-n2ccc(N3CCOCC3)n2)cc1` [Example 230, 2-(4-chloro-1-isopropyl-1H-pyrazol-5-yl)-4-(4-(3-morpholino-1H-pyrazol-1-yl)benzyl)-6,7-dihydropyrazolo[1,5-α]pyrimidin-5(4H)-one], for which the IC50 was more than 500 nM.

`CCn1cc(C(F)(F)F)nc1-c1ccc(CN2C(=O)C(NC(C)=O)Cn3nc(-c4c(Cl)cnn4C(C)C)cc32)cc1` (stereo not drawn) [Example 234, N-(2-(4-chloro-1-isopropyl-1H-pyrazol-5-yl)-4-(4-(1-ethyl-4-(trifluoromethyl)-1H-imidazol-2-yl)benzyl)-5-oxo-4,5,6,7-tetrahydropyrazolo[1,5-α]pyrimidin-6-yl)acetamide]: the IC50 was in the range of 100 to 500 nM.

For the molecule `CCn1cc(C(F)(F)F)nc1-c1ccc(NC2CCCn3nc(-c4c(Cl)cnn4C(C)C)nc32)cc1` (stereo not drawn) [Example 256, 2-(4-chloro-1-isopropyl-1H-pyrazol-5-yl)-N-(4-(1-ethyl-4-(trifluoromethyl)-1H-imidazol-2-yl)phenyl)-5,6,7,8-tetrahydro-[1,2,4]triazolo[1,5-α]pyridin-8-amine], the IC50 is 100 to 500 nM.

Turning to `CCn1cc(C(F)(F)F)nc1-c1ccc(N(C)C2CCCn3nc(-c4c(Cl)cnn4C(C)C)nc32)cc1F` (stereo not shown) [Example 259], the concentration for half-maximal inhibition (IC50) is 100 to 500 nM.

With `CCn1cc(C(F)(F)F)nc1-c1ccc(N(C)C2CCCn3nc(-c4c(Cl)cnn4C(C)C)nc32)cc1` (stereo not shown) [Example 260], the IC50 fell in the range of 100 to 500 nM.

`CCn1cc(C(F)(F)F)nc1-c1ccc(CN2C(=O)CCn3nc(-c4ccnn4C(C)C)c(Cl)c32)cc1` [Example 268, 3-chloro-4-(4-(1-ethyl-4-(trifluoromethyl)-1H-imidazol-2-yl)benzyl)-2-(1-isopropyl-1H-pyrazol-5-yl)-6,7-dihydropyrazolo[1,5-α]pyrimidin-5(4H)-one]: the IC50 is more than 500 nM.

For the molecule `CCn1cc(C(F)(F)F)nc1-c1ccc(NC2CCCn3nc(-c4ccnn4C(C)C)c(Cl)c32)cc1F` (stereo not drawn) [Example 269, 3-chloro-N-(4-(1-ethyl-4-(trifluoromethyl)-1H-imidazol-2-yl)-3-fluorophenyl)-2-(1-isopropyl-1H-pyrazol-5-yl)-4,5,6,7-tetrahydropyrazolo[1,5-α]pyridin-4-amine], the concentration for half-maximal inhibition (IC50) is more than 500 nM.

Turning to `CC(C)n1ncc(Cl)c1-c1cc2n(n1)CCC(=O)N2Cc1ccc(-c2ncccc2OC(F)F)c(Cl)c1` [Example 271, 2-(4-chloro-1-isopropyl-1H-pyrazol-5-yl)-4-(3-chloro-4-(3-(difluoromethoxy)pyridin-2-yl)benzyl)-6,7-dihydropyrazolo[1,5-α]pyrimidin-5(4H)-one], the IC50 lay in the range of 100 to 500 nM.

In the case of `CC(C)n1ncc(Cl)c1-c1cc2n(n1)CCC(=O)N2Cc1ccc(-c2cncc(C(F)(F)F)n2)c(Cl)c1` [Example 272], the IC50 was more than 500 nM.

In the case of `CC(C)n1ncc(Cl)c1-c1cc2n(n1)CCC(=O)N2Cc1ccc(-c2nccc(C(F)(F)F)n2)c(Cl)c1` [Example 273], the IC50 is more than 500 nM.

For the molecule `COc1nccnc1-c1ccc(CN2C(=O)CCn3nc(-c4c(Cl)cnn4C(C)C)cc32)cc1Cl` [Example 274], the half-maximal inhibitory concentration (IC50) is 100 to 500 nM.

In the case of `Cc1cn2ccnc(-c3ccc(CN4C(=O)CCn5nc(-c6c(Cl)cnn6C(C)C)cc54)cc3Cl)c2n1` [Example 275], the IC50 is 100 to 500 nM.

In the case of `CC(C)n1ncc(Cl)c1-c1cc2n(n1)CCC(=O)N2Cc1ccc(-c2ncnn3cccc23)c(Cl)c1` [Example 276], the half-maximal inhibitory concentration (IC50) lay within 100 to 500 nM.

With `Cc1nc(-c2ccc(CN3C(=O)CCn4nc(-c5c(Cl)cnn5C(C)C)cc43)cc2Cl)cn1C` [Example 277], the concentration for half-maximal inhibition (IC50) is more than 500 nM.

In the case of `Cc1ccnnc1-c1ccc(CN2C(=O)CCn3nc(-c4c(Cl)cnn4C(C)C)cc32)cc1Cl` [Example 278], the concentration for half-maximal inhibition (IC50) is more than 500 nM.

Take `CC(C)n1ncc(Cl)c1-c1cc2n(n1)CCC(=O)N2Cc1ccc(-c2ncccc2OC(F)(F)F)c(Cl)c1` [Example 279]: the concentration for half-maximal inhibition (IC50) was more than 500 nM.

Turning to `Cc1ccn2ncnc(-c3ccc(CN4C(=O)CCn5nc(-c6c(Cl)cnn6C(C)C)cc54)cc3Cl)c12` [Example 280], the IC50 was more than 500 nM.

Take `Cc1cc(-c2ccc(CN3C(=O)CCn4nc(-c5c(Cl)cnn5C(C)C)cc43)cc2Cl)n(C)n1` [Example 281]: the IC50 is more than 500 nM.

For the molecule `Cc1ccc(F)c(-c2ccc(CN3C(=O)CCn4nc(-c5c(Cl)cnn5C(C)C)cc43)cc2Cl)n1` [Example 282], the half-maximal inhibitory concentration (IC50) was more than 500 nM.

Regarding `CC(C)n1ncc(Cl)c1-c1cc2n(n1)CCC(=O)N2Cc1ccc(-c2ncccc2C(F)(F)F)c(Cl)c1` [Example 283], the half-maximal inhibitory concentration (IC50) is more than 500 nM.

As to `Cc1ncc(-c2ccc(CN3C(=O)CCn4nc(-c5c(Cl)cnn5C(C)C)cc43)cc2Cl)n1C` [Example 284], the IC50 is more than 500 nM.

For the molecule `COc1ccc(-c2ccc(CN3C(=O)CCn4nc(-c5c(Cl)cnn5C(C)C)cc43)cc2Cl)nc1` [Example 285], the IC50 was more than 500 nM.

For the molecule `COc1ccnc(-c2ccc(CN3C(=O)CCn4nc(-c5c(Cl)cnn5C(C)C)cc43)cc2Cl)n1` [Example 286], the half-inhibitory concentration (IC50) is more than 500 nM.

As to `CC(C)n1ncc(Cl)c1-c1cc2n(n1)CCC(=O)N2Cc1ccc(-c2nn(C)cc2C#N)c(Cl)c1` [Example 287], the half-maximal inhibitory concentration (IC50) is more than 500 nM.
